Source: the supplement of paper PMC10307832

How the values were obtained:
Assay in all cases: relative viability (nuclei count vs DMSO), 5 days (fraction); higher = more cells survive
TGX 221 + Alpelisib = compound: CC1=CN2C(=O)C=C(N=C2C(=C1)C(C)NC3=CC=CC=C3)N4CCOCC4 [TGX 221] + Cc1nc(NC(=O)N2CCC[C@H]2C(N)=O)sc1-c1ccnc(C(C)(C)C(F)(F)F)c1 [Alpelisib] (partner 2 µM)
Outline: (§1)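 Dosing by pin tool came one day after lung cancer cell lines were seeded in 1536-well plates, using either one drug or a fixed anchor-drug dose plus five library-drug doses (not always all listed) in √10 steps. After 5 days, nuclei were counted on 4× images. Relative viability is treated-well nuclei count divided by vehicle-well nuclei count, and values are medians of duplicate plates.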

Ricolinostat + Olaparib = compound: O=C(CCCCCCNC(=O)c1cnc(N(c2ccccc2)c2ccccc2)nc1)NO [Ricolinostat] + O=C(c1cc(Cc2n[nH]c(=O)c3ccccc23)ccc1F)N1CCN(C(=O)C2CC2)CC1 [Olaparib] (partner 8 µM)
Outline: as §1

[1] = compound: C1=CC=C(C(=C1)C2=CC=C(C=C2)C3=CSC4=C3C(=C(C(=O)N4)C#N)O)O + CS(=O)(=O)CCNCc1ccc(-c2ccc3ncnc(Nc4ccc(OCc5cccc(F)c5)c(Cl)c4)c3c2)o1 [Lapatinib] (partner 2 µM)
Outline: as §1

[2] = compound: O=C(CCCCCCNC(=O)c1cnc(N(c2ccccc2)c2ccccc2)nc1)NO [Ricolinostat] + C[C@@H](Oc1cc(-c2cnn(C3CCNCC3)c2)cnc1N)c1c(Cl)ccc(F)c1Cl [Crizotinib] (partner 1 µM)
Outline: as §1

[3] = compound: C1=CC=C(C(=C1)C2=CC=C(C=C2)C3=CSC4=C3C(=C(C(=O)N4)C#N)O)O + C[C@@H](Oc1cc(-c2cnn(C3CCNCC3)c2)cnc1N)c1c(Cl)ccc(F)c1Cl [Crizotinib] (partner 1 µM)
Outline: as §1

## NCI-H1792
TGX 221 + Alpelisib; first compound 0.08 µM
  relative viability: 0.609
TGX 221 + Alpelisib; first compound 0.253 µM
  relative viability: 0.599
TGX 221 + Alpelisib; first compound 0.8 µM
  relative viability: 0.698
TGX 221 + Alpelisib; first compound 2.53 µM
  relative viability: 0.511
TGX 221 + Alpelisib; first compound 8 µM
  relative viability: 0.432
Ricolinostat + Olaparib; first compound 0.253 µM
  relative viability: 0.391
Ricolinostat + Olaparib; first compound 0.8 µM
  relative viability: 0.284
Ricolinostat + Olaparib; first compound 2.53 µM
  relative viability: 0.041
[1]; first compound 0.253 µM
  relative viability: 0.543
[1]; first compound 0.8 µM
  relative viability: 0.854
[1]; first compound 2.53 µM
  relative viability: 0.92
[1]; first compound 8 µM
  relative viability: 0.658
[2]; first compound 0.08 µM
  relative viability: 0.849
[2]; first compound 0.253 µM
  relative viability: 0.988
[2]; first compound 0.8 µM
  relative viability: 0.913
[2]; first compound 2.53 µM
  relative viability: 1
[3]; first compound 0.253 µM
  relative viability: 0.915
[3]; first compound 0.8 µM
  relative viability: 1.15
[3]; first compound 2.53 µM
  relative viability: 1.13
[3]; first compound 8 µM
  relative viability: 0.43
